System: splenic B cells
Assay: Proliferation of B cells in vitro (anti-CD40 and anti-IgM stimulated)
Type: cell-based, mouse
Method: Adult wild type mice (C57B16) were sacrificed and spleens were rapidly removed. After dissociation into single cell suspension and red blood cell lysis with NH4Cl, splenocytes were isolated by centrifugation over a Ficoll gradient. Subsequently, B lymphocytes were purified by one of two methods, complement mediated lysis or CD43 negative selection. For complement lysis, cells were incubated with anti-Thy 1 antibody (J1J), anti-L3T4 (GK 1.5), anti-Ly2 (TIB105, ATCC) and rabbit complement (Sigma) for two hours at 37°. CD43 negative selection was carried out using anti-CD43 (Serotec) and Miltenyi microbeads according to the manufacturer's instructions. Cells were cultured in RPMI 1640, 10% fetal calf serum for three days in the presence of anti-CD40 (mAb 1C10, generous gift of Hsiou-Chi Liou, Weill Medical College of Cornell University) and anti-IgM Fab′2 fragments (Jackson Immunoresearch). FGF1 (100 ng/ml) and Heparin (10 ug/ml) were added, and the number of cells was determined in triplicate compared to Heparin alone using a Coulter Counter (Coulter) or trypan blue exclusion with the same results. […]
FGF signaling inhibits splenic B cell proliferation. […] The values represent the percent decrease in total cell number observed with addition of 100 ng/ml FGF1 (determined in triplicate) as compared to heparin (10 ug/ml) alone. x=mean+/− s.e.m. […]

With “FGF1: fibroblast growth factor ligand added exogenously to B cells; stimulates the widest range of FGF receptors” the “% Decrease in total cell number, mean +/- s.e.m.” value (mean of 6 experiments, 100 ng/ml FGF1 plus heparin vs heparin alone, 3 days, one sample t test p<0.01) was 19.7 +/− 2.8% and the B cell number (purified spleen B cells with CD40 and BCR signaling activated, incubated in the presence of FGF-1) was “inhibited”.

From patent publication US9884116B2, “FGF modulation of in vivo antibody production and humoral immunity” (priority 2010, dated 2018)
